Measurements published in patent publication US7138361B2, “Herbicidal heterocycles” (E. I. du Pont de Nemours and Company, priority 2000, dated 2006).

Columns and labels:
Type in all cases: in vivo
[1] = test system: morning glory (Ipomoea spp.); test: Test A postemergence, sprayed to runoff; design: scale not given here; conditions: Morningglory, approx. eleven days
Procedure: (§1) Seeds of barnyardgrass (Echinochloa crus-galli), crabgrass (Digitaria spp.), giant foxtail (Setaria viridis), morning glory (Ipomoea spp.), redroot pigweed (Amaranthus retroflexus) and velvetleaf (Abutilon theophrasti) were planted into a sandy loam soil and treated preemergence by soil drench with test chemicals formulated in a non-phytotoxic solvent mixture which included a surfactant. At the same time, these crop and weed species were also treated postemergence sprayed to runoff with test chemicals formulated in the same manner. Plants ranged in height from two to eighteen cm and were in the one- to two-leaf stage for the postemergence treatment. Treated plants and untreated controls were maintained in a greenhouse for approximately eleven days, after which time all treated plants were compared to untreated controls and visually evaluated for injury. Plant response ratings, summarized in Table A, are based on a 0 to 10 scale where 0 is no effect and 10 is complete control. A dash (-) response means no test results.

[2] = test system: velvetleaf (Abutilon theophrasti); test: Test A postemergence, sprayed to runoff; design: scale not given here; conditions: approx. eleven days
Procedure: as §1

[3] = test system: barnyardgrass (Echinochloa crus-galli); test: Test A postemergence, sprayed to runoff; conditions: approx. eleven days
Procedure: as §1

[4] = test system: crabgrass (Digitaria spp.); test: Test A postemergence, sprayed to runoff; conditions: approx. eleven days
Procedure: as §1

[5] = test system: giant foxtail (Setaria viridis); test: Test A postemergence, sprayed to runoff; conditions: approx. eleven days
Procedure: as §1

[6] = test system: redroot pigweed (Amaranthus retroflexus); test: Test A postemergence, sprayed to runoff; conditions: approx. eleven days
Procedure: as §1

[7] = test system: barnyardgrass (Echinochloa crus-galli); test: Test A preemergence, soil drench; conditions: approx. eleven days
Procedure: as §1

[8] = test system: crabgrass (Digitaria spp.); test: Test A preemergence, soil drench; conditions: approx. eleven days
Procedure: as §1

[9] = test system: giant foxtail (Setaria viridis); test: Test A preemergence, soil drench; conditions: approx. eleven days
Procedure: as §1

[10] = test system: morning glory (Ipomoea spp.); test: Test A preemergence, soil drench; conditions: Morningglory, approx. eleven days
Procedure: as §1

[11] = test system: redroot pigweed (Amaranthus retroflexus); test: Test A preemergence, soil drench; conditions: approx. eleven days
Procedure: as §1

[12] = test system: velvetleaf (Abutilon theophrasti); test: Test A preemergence, soil drench; conditions: approx. eleven days
Procedure: as §1

[13] = test system: barnyardgrass (Echinochloa crus-galli); test: Test B flooded paddy test; conditions: Rate 1000 g/ha, scale of 0 to 100 where 0 is no effect and 100 is complete control, visually evaluated after 13 to 15 days
How it was run: (§2)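 Treatment: formulated chemical applied to flooded paddy plants at 2-leaf stage. Hold: greenhouse, 13–15 days. Scoring: visual comparison to controls, 0 (no effect) to 100 (complete control).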

[14] = test system: duck salad (Heteranthera limosa); test: Test B flooded paddy test; conditions: Rate 1000 g/ha, scale of 0 to 100 where 0 is no effect and 100 is complete control, visually evaluated after 13 to 15 days
How it was run: as §2

rice (Oryza saliva) = test: Test B flooded paddy test; conditions: Rate 1000 g/ha, scale of 0 to 100 where 0 is no effect and 100 is complete control, visually evaluated after 13 to 15 days
How it was run: as §2

[15] = test system: smallflower flatsedge (Cyperus difformis); test: Test B flooded paddy test; conditions: Rate 1000 g/ha, scale of 0 to 100 where 0 is no effect and 100 is complete control, visually evaluated after 13 to 15 days
How it was run: as §2

[16] = test system: duck salad (Heteranthera limosa); test: Test C flooded paddy test
How it was run: (§3)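 Visually assessed vs untreated controls 12–14 d post-treatment (greenhouse). Flooded paddy plants were at the 2-leaf stage; scale 0 = no effect, 100 = complete control.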

[17] = test system: smallflower flatsedge (Cyperus difformis); test: Test C flooded paddy test; conditions: for Flatsedge plant response rating: Flooded Paddy, scale 0 to 100, 0 no effect, 100 complete control; for Plant response rating, Flatsedge: scale 0 to 100 (0 no effect, 100 complete control)
How it was run: as §3

[18] = flooded paddy test, Rate 16 g/ha, visually evaluated after 12 to 14 days, 0 = no effect, 100 = complete control

Row | Structure (SMILES) | Plant response rating (visual injury vs untreated controls) ([1]; Rate 500 g/ha) | Plant response rating (visual injury vs untreated controls) ([1]; Rate 2000 g/ha) | Plant response rating (visual injury vs untreated controls) ([2]; Rate 500 g/ha) | Plant response rating (visual injury vs untreated controls) ([2]; Rate 2000 g/ha) | Plant response rating (visual injury vs untreated controls) ([3]; Rate 500 g/ha) | Plant response rating (visual injury vs untreated controls) ([3]; Rate 2000 g/ha) | Plant response rating (visual injury vs untreated controls) ([4]; Rate 500 g/ha) | Plant response rating (visual injury vs untreated controls) ([4]; Rate 2000 g/ha) | Plant response rating (visual injury vs untreated controls) ([5]; Rate 500 g/ha) | Plant response rating (visual injury vs untreated controls) ([5]; Rate 2000 g/ha) | Plant response rating (visual injury vs untreated controls) ([6]; Rate 500 g/ha) | Plant response rating (visual injury vs untreated controls) ([6]; Rate 2000 g/ha) | Plant response rating (visual injury vs untreated controls) ([7]; Rate 500 g/ha) | Plant response rating (visual injury vs untreated controls) ([7]; Rate 2000 g/ha) | Plant response rating (visual injury vs untreated controls) ([8]; Rate 500 g/ha) | Plant response rating (visual injury vs untreated controls) ([8]; Rate 2000 g/ha) | Plant response rating (visual injury vs untreated controls) ([9]; Rate 500 g/ha) | Plant response rating (visual injury vs untreated controls) ([9]; Rate 2000 g/ha) | Plant response rating (visual injury vs untreated controls) ([10]; Rate 500 g/ha) | Plant response rating (visual injury vs untreated controls) ([10]; Rate 2000 g/ha) | also measured
1 | CC1(C)CCc2cn(C3CCN(c4cccc(C(F)(F)F)c4)C3=O)nc21 (centres unmarked) [Compound 10] | 10 | 20 | 0 | 50 | 20 | 10 | 10 | 10 | 10 | 10 | 20 | 100 | 100 | 100 | 90 | 100 | 90 | 100 | 0 | 20 | Plant response rating (visual injury vs untreated controls) ([11]; Rate 500 g/ha): 100; Plant response rating (visual injury vs untreated controls) ([11]; Rate 2000 g/ha): 100; Plant response rating (visual injury vs untreated controls) ([12]; Rate 500 g/ha): 20; Plant response rating (visual injury vs untreated controls) ([12]; Rate 2000 g/ha): 10; Plant response rating, Barnyardgrass [13]: 100; Plant response rating, Ducksalad [14]: 100; Plant response rating, Rice (rice (Oryza saliva)): 60; Plant response rating, Flatsedge [15]: 100; Plant response rating, Ducksalad ([16]; Flooded Paddy, Rate 500 g/ha, scale 0 to 100): 90; Ducksalad plant response rating ([16]; Flooded Paddy, Rate 250 g/ha, scale 0 to 100, 0 no effect, 100 complete control): 90; Plant response rating, Ducksalad ([16]; flooded paddy test, Rate 62 g/ha, scale 0 to 100 (0 no effect, 100 complete control)): 0; Plant response rating, Ducksalad ([16]; flooded paddy test, Rate 125 g/ha, scale 0 to 100 (0 no effect, 100 complete control)): 20; Plant response rating (scale 0 to 100), Ducksalad [16, 18]: 0; Flatsedge plant response rating ([17]; Rate 250 g/ha): 100; Flatsedge plant response rating ([17]; Rate 500 g/ha): 100; Plant response rating, Flatsedge ([17]; flooded paddy test, Rate 62 g/ha): 50; Plant response rating, Flatsedge ([17]; flooded paddy test, Rate 125 g/ha): 80; Plant response rating (scale 0 to 100), Flatsedge [17, 18]: 30
2 | O=C1C(n2cccn2)CCN1c1cccc(C(F)(F)F)c1 (centres unmarked) [Compound 15] | 30 | 20 | 0 | 10 | 10 | 10 | 10 | 10 | 10 | 10 | 0 | 0 | 10 | 10 | 80 | 100 | 50 | 100 | 0 | 0 | Plant response rating (visual injury vs untreated controls) ([11]; Rate 500 g/ha): 30; Plant response rating (visual injury vs untreated controls) ([11]; Rate 2000 g/ha): 100; Plant response rating (visual injury vs untreated controls) ([12]; Rate 500 g/ha): 30; Plant response rating (visual injury vs untreated controls) ([12]; Rate 2000 g/ha): 100; Plant response rating, Barnyardgrass [13]: 0; Plant response rating, Ducksalad [14]: 0; Plant response rating, Rice (rice (Oryza saliva)): 0; Plant response rating, Flatsedge [15]: 0
3 | Cc1ccn(C2CCN(c3cccc(C(F)(F)F)c3)C2=O)n1 (centres unmarked) [Compound 16] | 20 | 20 | 0 | 20 | 0 | 10 | 10 | 20 | 0 | 30 | 0 | 0 | 10 | 70 | 100 | 100 | 80 | 90 | 0 | 20 | Plant response rating (visual injury vs untreated controls) ([11]; Rate 500 g/ha): 80; Plant response rating (visual injury vs untreated controls) ([11]; Rate 2000 g/ha): 100; Plant response rating (visual injury vs untreated controls) ([12]; Rate 500 g/ha): 10; Plant response rating (visual injury vs untreated controls) ([12]; Rate 2000 g/ha): 100; Plant response rating, Barnyardgrass [13]: 0; Plant response rating, Ducksalad [14]: 0; Plant response rating, Rice (rice (Oryza saliva)): 0; Plant response rating, Flatsedge [15]: 0
4 | CC(C)(C)c1ccn(C2OCN(c3cccc(C(F)(F)F)c3)C2=O)n1 (centres unmarked) [compound 9] | 10 | 10 | 0 | 40 | 80 | 90 | 20 | 10 | 30 | 100 | 20 | 80 | 100 | 100 | 90 | 100 | 100 | 100 | 0 | 0 | Plant response rating (visual injury vs untreated controls) ([11]; Rate 500 g/ha): 100; Plant response rating (visual injury vs untreated controls) ([11]; Rate 2000 g/ha): 100; Plant response rating (visual injury vs untreated controls) ([12]; Rate 500 g/ha): 20; Plant response rating (visual injury vs untreated controls) ([12]; Rate 2000 g/ha): 10; Plant response rating, Barnyardgrass [13]: 100; Plant response rating, Ducksalad [14]: 100; Plant response rating, Rice (rice (Oryza saliva)): 100; Plant response rating, Flatsedge [15]: 100
